Source: US20050107440A1, “Rosiglitazone edisylates and their use as antidiabetics” (priority 2001, published 2005)

How the values were obtained:
Format in all cases: physicochemical
[1] = Solubility of the Ethanedisulfonate Form I in water (visual, aliquot addition); conditions: water added in aliquots 0.25 to 1 ml to approx. 30 mg; product of Example 2
[2] = Solubility of the Ethanedisulfonate Form II in water (visual, confirmed by HPLC assay of a saturated solution); conditions: water added in aliquots 1 to 1000 ml to approx. 100 mg, product of Example 7
Excerpt: The visual solubility was confirmed by an HPLC assay of a saturated solution.

[3] = Solid state stability of the drug substance (storage 1 month, HPLC assay); conditions: product of Example 7
Method: The solid state stability of the drug substance was determined by storing approximately 1.0 g of the material in a glass bottle at a) 40° C./75% Relative Humidity (RH), open exposure, for 1 month and b) at 50° C., closed, for 1 month. […] Solubility of the Ethanedisulfonate Form II

Row | Compound | Solubility [1] [µg/mL] | Solubility [2] [µg/mL] | Solid state stability: HPLC assay (final content) ([3]; 40° C./75% RH, open exposure) [% initial] | Solid state stability: degradation ([3]; 40° C./75% RH, open exposure) | Solid state stability: HPLC assay (final content) ([3]; 50° C., closed) [% initial] | Solid state stability: degradation ([3]; 50° C., closed)
1 | CN(CCOc1ccc(CC2SC(=O)NC2=O)cc1)c1ccccn1.O=S(=O)(O)CCS(=O)(=O)O (stereo not drawn) [Ethanedisulfonate Form I, 5-[4-[2-(N-methyl-N-(2-pyridyl)amino)ethoxy]benzyl]thiazolidine-2,4-dione 1,2-ethanedisulfonate Form I] | 4700 |  |  |  |  | 
2 | CN(CCOc1ccc(CC2SC(=O)NC2=O)cc1)c1ccccn1.O=S(=O)(O)CCS(=O)(=O)O (stereo not drawn) [Ethanedisulfonate Form II, 5-[4-[2-(N-methyl-N-(2-pyridyl)amino)ethoxy]benzyl]thiazolidine-2,4-dione 1,2-ethanedisulfonate Form II] |  | 4700 | 98 | No significant degradation observed | 99 | No significant degradation observed
